Assay results from US9701664B2, “Fused 1,4-dihydrodioxin derivatives as inhibitors of heat shock transcription factor 1” (Cancer Research Technology Limited, priority 2013, dated 2017).

System: HSP72 in SK-OV-3 cells
Assay: Cell-based ELISA (Cellisa) assay, SK-OV-3 cells: inhibition of 17-AAG-induced HSP72
Conditions: SK-OV-3 cells (Examples 169-218)
Protocol: U2OS cells (5-8×10^4 cells/mL) or SK-OV-3 cells (5-8×10^4 cells/mL) were seeded into 96-well plates and incubated at 37° C. for 48 h. Compounds were then added at a range of concentrations and incubated for 1 h before addition of 17-AAG (250 nM). Cells were then incubated for 18 h. The medium was removed washed 2× with PBS and cells were then fixed with fixing solution (4% paraformaldehyde, 0.3% TritonX-100 in PBS) for 30 min at 4° C. The plates were then washed 2× with PBS before blocking with 5% milk for 30 min at 37° C. After washing the plates 4× with 0.1% Tween-20/deionised water, HSP72 antibody (SPA-810, Enzo Life) was added for 1.5 h at 37° C. Following 4× washes, the plates were incubated with europium-labelled anti-mouse antibody (0.6 ug/ml) in Delfia assay buffer (Perkin Elmer) for 1 h at 37° C. After washing the plates, Delfia enhancement solution was added, shaken for 10 min before reading in the Envision plate reader (Perkin-Elmer) with excitation at 340 nm and emission at 615 nm. The plates were washed again before protein determination using the bicinchoninic acid assay (BCA assay, Pierce Biotechnology). The europium counts were normalised for the amount of protein in each well. The 50% inhibitory concentration value of the compound was then calculated.

Row | Compound | IC50 (Homo sapiens) [nM] | IC50 [nM]
1 | CCN1CCN(Cc2ccc3cc(C(=O)Nc4cc(NC(=O)c5ccc6c(c5)OCCO6)ccc4F)ccc3n2)[C@@H](C)C1 [Example 213, (S)—N-(5-(2,3-dihydrobenzo[b][1,4]dioxine-6-carboxamido)-2-fluorophenyl)-2-((4-ethyl-2-methylpiperazin-1-yl)methyl)quinoline-6-carboxamide] | 57 | –
2 | O=C(Nc1ccc(Cl)c(NC(=O)c2ccc3nc(CN4CCNCC4)ccc3c2)c1)c1ccc2c(c1)OCCO2 [Example 192, N-(2-chloro-5-(2,3-dihydrobenzo[b][1,4]dioxine-6-carboxamido)phenyl)-2-(piperazin-1-ylmethyl)quinoline-6-carboxamide] | 128 | –
3 | O=C(Nc1ccc(Br)c(NC(=O)c2ccc3nc(CN4CCC4)ccc3c2)c1)c1ccc2c(c1)OCCO2 [Example 216, 2-(azetidin-1-ylmethyl)-N-(2-bromo-5-(2,3-dihydrobenzo[b][1,4]dioxine-6-carboxamido)phenyl)quinoline-6-carboxamide] | 55 | –
4 | CCN1C[C@@H]2C[C@H]1CN2Cc1ccc2cc(C(=O)Nc3cc(NC(=O)c4ccc5c(c4)OCCO5)ccc3F)ccc2n1 [Example 180, N-(5-(2,3-dihydrobenzo[b][1,4]dioxine-6-carboxamido)-2-fluorophenyl)-2-(((1S,4S)-5-ethyl-2,5-diazabicyclo[2.2.1]heptan-2-yl)methyl)quinoline-6-carboxamide] | 208 | –
5 | 2-((4-(tert-butyl)piperazin-111)methyl)-N-(5-(2,3-dihydrobenzo[b][1,4]dioxine-6-carboxamido)-2-fluorophenyl)quinoline-6-carboxamide [Example 177] | – | 70
6 | Cc1ccc(NC(=O)c2ccc3c(c2)OCCO3)cc1NC(=O)c1ccc2nc(CN3CCCCC3)ccc2c1 [Example 209, N-(5-(2,3-dihydrobenzo[b][1,4]dioxine-6-carboxamido)-2-methylphenyl)-2-(piperidin-1-ylmethyl)quinoline-6-carboxamide] | 208 | –
7 | CC(C)N1CCN(Cc2ccc3cc(C(=O)Nc4cc(NC(=O)c5ccc6c(c5)OCCO6)ccc4F)ccc3n2)[C@@H](C)C1 [Example 217, (S)—N-(5-(2,3-dihydrobenzo[b][1,4]dioxine-6-carboxamido)-2-fluorophenyl)-2-((4-isopropyl-2-methylpiperazin-1-yl)methyl)quinoline-6-carboxamide] | 137 | –
8 | O=C(Nc1ccc(F)c(NC(=O)c2ccc3nc(CN4CCN(C5CC5)CC4)ccc3c2)c1)c1ccc2c(c1)OCCO2 [Example 178, 2-((4-cyclopropylpiperazin-1-yl)methyl)-N-(5-(2,3-dihydrobenzo[b][1,4]dioxine-6-carboxamido)-2-fluorophenyl)quinoline-6-carboxamide] | 44 | –
9 | C[C@@H]1CCCN1Cc1ccc2cc(C(=O)Nc3cc(NC(=O)c4ccc5c(c4)OCCO5)ccc3F)ccc2n1 [Example 176, (R)—N-(5-(2,3-dihydrobenzo[b][1,4]dioxine-6-carboxamido)-2-fluorophenyl)-2-((2-methylpyrrolidin-1-yl)methyl)quinoline-6-carboxamide] | 313 | –
10 | CCN1CCN(C(C)c2ccc3cc(C(=O)Nc4cc(NC(=O)c5ccc6c(c5)OCCO6)ccc4F)ccc3n2)CC1 (stereo not drawn) [Example 214, N-(5-(2,3-dihydrobenzo[b][1,4]dioxine-6-carboxamido)-2-fluorophenyl)-2-(1-(4-ethylpiperazin-1-yl)ethyl)quinoline-6-carboxamide] | 957 | –
11 | O=C(Nc1ccc(F)c(NC(=O)c2ccc3nc(CN4CCNCC4)ccc3c2)c1)c1ccc2c(c1)OCCO2 [Example 174, N-(5-(2,3-dihydrobenzo[b][1,4]dioxine-6-carboxamido)-2-fluorophenyl)-2-(piperazin-1-ylmethyl)quinoline-6-carboxamide] | 78 | –
12 | O=C(Nc1ccc(F)c(NC(=O)c2ccc3nc(CN4CC5(CCC5)C4)ccc3c2)c1)c1ccc2c(c1)OCCO2 [Example 181, 2-(2-azaspiro[3.3]heptan-2-ylmethyl)-N-(5-(2,3-dihydrobenzo[b][1,4]dioxine-6-carboxamido)-2-fluorophenyl)quinoline-6-carboxamide] | 149 | –
13 | Cc1ccc(NC(=O)c2ccc3c(c2)OCCO3)cc1NC(=O)c1ccc2nc(CN3CCC3)ccc2c1 [Example 203, 2-(azetidin-1-ylmethyl)-N-(5-(2,3-dihydrobenzo[b][1,4]dioxine-6-carboxamido)-2-methylphenyl)quinoline-6-carboxamide] | 23 | –
14 | CC(C)(C)N1CCN(Cc2ccc3cc(C(=O)Nc4cc(NC(=O)c5ccc6c(c5)OCCO6)ccc4Cl)ccc3n2)CC1 [Example 191, 2-((4-(tert-butyl)piperazin-1-yl)methyl)-N-(2-chloro-5-(2,3 dihydrobenzo[b][1,4]dioxine-6-carboxamido)phenyl)quinoline-6-carboxamide] | 134 | –
15 | CC(C)N1CCN(Cc2ccc3cc(C(=O)Nc4cc(NC(=O)c5ccc6c(c5)OCCO6)ccc4Cl)ccc3n2)CC1 [Example 197, N-(2-chloro-5-(2,3-dihydrobenzo[b][1,4]dioxine-6-carboxamido)phenyl)-2-((4-isopropylpiperazin-1-yl)methyl)quinoline-6-carboxamide] | 43 | –
16 | CCN1CCN(Cc2ccc3cc(C(=O)Nc4cc(NC(=O)c5ccc6c(c5)OCCO6)ccc4F)ccc3n2)[C@H](C)C1 [Example 212, (R)—N-(5-(2,3-dihydrobenzo[b][1,4]dioxine-6-carboxamido)-2-fluorophenyl)-2-((4-ethyl-2-methylpiperazin-1-yl)methyl)quinoline-6-carboxamide] | 85 | –
17 | O=C(Nc1ccc(F)c(NC(=O)c2ccc3nc(OCCCN4CCCCC4)ccc3c2)c1)c1ccc2c(c1)OCCO2 [Example 186, N-(5-(2,3-dihydrobenzo[b][1,4]dioxine-6-carboxamido)-2-fluorophenyl)-2-(3-(piperidin-1-yl)propoxy)quinoline-6-carboxamide] | 13 | –
18 | CC1(C)CN(Cc2ccc3cc(C(=O)Nc4cc(NC(=O)c5ccc6c(c5)OCCO6)ccc4Cl)ccc3n2)C1 [Example 201, N-(2-chloro-5-(2,3-dihydrobenzo[b][1,4]dioxine-6-carboxamido)phenyl)-2-((3,3-dimethylazetidin-1-yl)methyl)quinoline-6-carboxamide] | 83 | –
19 | CC(C)N1CCN(Cc2ccc3cc(C(=O)Nc4cc(NC(=O)c5ccc6c(c5)OCCO6)ccc4F)ccc3n2)[C@H](C)C1 [Example 218, (R)—N-(5-(2,3-dihydrobenzo[b][1,4]dioxine-6-carboxamido)-2-fluorophenyl)-2-((4-isopropyl-2-methylpiperazin-1-yl)methyl)quinoline-6-carboxamide] | 80 | –
20 | Cc1ccc(NC(=O)c2ccc3c(c2)OCCO3)cc1NC(=O)c1ccc2nc(CN3CC[C@H](F)C3)ccc2c1 [Example 207, (S)—N-(5-(2,3-dihydrobenzo[b][1,4]dioxine-6-carboxamido)-2-methylphenyl)-2-((3-fluoropyrrolidin-1-yl)methyl)quinoline-6-carboxamide] | 80 | –
21 | O=C(Nc1ccc(F)c(NC(=O)c2ccc3nc(CN4CCC4)ccc3c2)c1)c1ccc2c(c1)OCCO2 [Example 171, 2-(azetidin-1-ylmethyl)-N-(5-(2,3-dihydrobenzo[b][1,4]dioxine-6-carboxamido)-2-fluorophenyl)quinoline-6-carboxamide] | 450 | –
22 | O=C(Nc1ccc(Cl)c(NC(=O)c2ccc3nc(CN4CCC4)ccc3c2)c1)c1ccc2c(c1)OCCO2 [Example 199, 2-(azetidin-1-ylmethyl)-N-(2-chloro-5-(2,3-dihydrobenzo[b][1,4]dioxine-6-carboxamido)phenyl)quinoline-6-carboxamide] | 85 | –
23 | CC(C)N1CCN(Cc2ccc3cc(C(=O)Nc4cc(NC(=O)c5ccc6c(c5)OCCO6)ccc4F)ccc3n2)CC1 [Example 185, N-(5-(2,3-dihydrobenzo[b][1,4]dioxine-6-carboxamido)-2-fluorophenyl)-2-((4-isopropylpiperazin-1-yl)methyl)quinoline-6-carboxamide] | 137 | –
24 | CC1CN(Cc2ccc3cc(C(=O)Nc4cc(NC(=O)c5ccc6c(c5)OCCO6)ccc4Cl)ccc3n2)C1 [Example 200, N-(2-chloro-5-(2,3-dihydrobenzo[b][1,4]dioxine-6-carboxamido)phenyl)-2-((3-methylazetidin-1-yl)methyl)quinoline-6-carboxamide] | 84 | –
25 | CCN1CCCN(Cc2ccc3cc(C(=O)Nc4cc(NC(=O)c5ccc6c(c5)OCCO6)ccc4F)ccc3n2)CC1 [Example 184, N-(5-(2,3-dihydrobenzo[b][1,4]dioxine-6-carboxamido)-2-fluorophenyl)-2-((4-ethyl-1,4-diazepan-1-yl)methyl)quinoline-6-carboxamide] | 60 | –
26 | COC1CCN(Cc2ccc3cc(C(=O)Nc4cc(NC(=O)c5ccc6c(c5)OCCO6)ccc4C)ccc3n2)C1 (stereo not drawn) [Example 208, N-(5-(2,3-dihydrobenzo[b][1,4]dioxine-6-carboxamido)-2-methylphenyl)-2-((3-methoxypyrrolidin-1-yl)methyl)quinoline-6-carboxamide] | 53 | –
27 | O=C(Nc1ccc(F)c(NC(=O)c2ccc3nc(CN4CCCCC4)ccc3c2)c1)c1ccc2c(c1)OCCO2 [Example 172, N-(5-(2,3-dihydrobenzo[b][1,4]dioxine-6-carboxamido)-2-fluorophenyl)-2-(piperidin-1-ylmethyl)quinoline-6-carboxamide] | 675 | –
